# Assay results as given in US11649475B2, “Dioxetane compounds and their use for the detection of microorganisms” (NEMIS Technologies AG, priority 2018, dated 2023).
# Tests used:
# [1] = test system: Listeria monocytogenes ATCC 7644; test: Luminescence of culture samples after addition of Compound IIIa; format: cell-based; conditions: L.m. 1, inoculation density 10^5 CFU/mL, 6 h cultivation, 10 μM
# Experimental: (§1) Similar cell concentrations of all strains were inoculated in triplicate test tubes with M52 broth. In addition, further dilutions of L.m. 2 cells in sterile saline were inoculated in triplicate test tubes. Sterile saline was added to negative control tubes. […] Final concentration of Compound IIIa was 10 μM, final concentration of dimethyl sulfoxide was 1% v/v. Light emission was recorded with a plate reader equipped with a luminescence detection system. […] It was possible to detect 10^3 CFU/mL of Listeria monocytogenes after 6 h of incubation as indicated by a signal-to-noise ratio of 2 relative to sterile controls.
# [2] = test system: Listeria monocytogenes (4b) ATCC 19115; test: as above; format: cell-based; conditions: 6 h cultivation, 10 μM; for Mean RLU (n = 3): 16-20 min after addition
# Experimental: as §1
# [3] = test system: Escherichia coli ATCC 25922; test: as above; format: cell-based; conditions: E.c., inoculation density 10^5 CFU/mL, 6 h cultivation, 10 μM
# Experimental: as §1
# [4] = test system: Listeria innocua (6a) ATCC 33090; test: as above; format: cell-based; conditions: L.i., inoculation density 10^5 CFU/mL, 6 h cultivation, 10 μM
# Experimental: as §1
# [5] = test system: phosphatidylinositol-specific phospholipase C (PI-PLC); test: Enzymatic assay of PI-PLC activity with Compound IIIa; format: biochemical; conditions: for RLU: PBS pH 7.4, 1% v/v DMSO
# Experimental: Varying concentrations of phosphatidylinositol-specific phospholipase C (PI-PLC) were added and luminescence was recorded at room temperature (Table 4). Assays were performed in a white microtiter plate with 0.25 mL total liquid volume.
# [6] = test system: Citrobacter freundii ATCC 8090; test: Luminescence of culture samples after addition of Compound IIa; format: cell-based; conditions: C.f., inoculation density 10^5 CFU/mL, 6 h cultivation, 10 μM
# Description: (§2) Citrobacter freundii ATCC 8090 (C.f., […] negative), Escherichia coli ATCC 25922 (E.c., […] negative), Salmonella Typhimurium (D) ATCC […]., Salmonella enterica ssp. I ser. Typhimurium, […] positive), Salmonella Enteritidis (D) ATCC […]. 1, Salmonella enterica ssp. enterica ser. Enteritidis, […] positive) and Salmonella Enteritidis RKI 05/[…]. 2, Salmonella enterica ssp. enterica ser. […] Similar cell concentrations of all strains were inoculated in triplicate test tubes with Nutrient Broth. […] Sterile saline was added to negative control tubes. […] Final concentration Compound IIa was 10 μM, final concentration of dimethyl sulfoxide was […]. Light emission was recorded with a plate reader equipped with a luminescence detection system.
# [7] = test system: Escherichia coli ATCC 25922; test: as above; format: cell-based; conditions: E.c., inoculation density 10^5 CFU/mL, 6 h cultivation, 10 μM
# Description: as §2
# pig liver esterase = test: Enzymatic assay of pig liver esterase activity with Compound IIa; conditions: 62.5 μM, PBS pH 7.4, 10% v/v DMSO, 20 min measurement period
# Experimental: The assay mix was pre-incubated for 20 min at room temperature, then 1:5 v/v of pig liver esterase solutions containing varying enzyme concentrations were added and luminescence was recorded for 20 min at room temperature with a SpectraMax M5 reader in luminescence mode. Assays were performed in a black microtiter plate with a total liquid volume of 0.25 mL.
# [8] = test system: Salmonella Typhimurium (D) ATCC 14028; test: Luminescence of culture samples after addition of Compound IIa; format: cell-based, Salmonella enterica ssp. I ser. Typhimurium; conditions: S.T., inoculation density 10^5 CFU/mL, 6 h cultivation, 10 μM
# Description: as §2
# [9] = test system: Salmonella Enteritidis (D) ATCC 13076; test: as above; format: cell-based, Salmonella enterica ssp. enterica ser. Enteritidis; conditions: S.E. 1, inoculation density 10^5 CFU/mL, 6 h cultivation, 10 μM
# Description: as §2
# [10] = test system: Salmonella Enteritidis RKI 05/07992; test: as above; format: cell-based, Salmonella enterica ssp. enterica ser. Enteritidis; conditions: for Signal to noise ratio (to sterile) / Mean RLU (n = 3): 6 h cultivation, 10 μM; for Mean RLU (n = 3): 27-30 min after addition
# Description: as §2
# [11] = test system: Salmonella Enteritidis RKI 05/07992; test: Limit of detection of Salmonella enterica, Compound IIa versus MUCAP; format: cell-based; conditions: Compound IIa 10 μM versus MUCAP 0.1 mM, PBS, 15% DMSO
# Experimental: Salmonella Enteritidis RKI 05/07992 was cultivated in Nutrient Broth (5 g/I peptone, 5 g/l NaCl, 2 g/L yeast extract, 1 g/l beef extract, pH 7.4) for 20 h (37° C., 150 rpm) and then serially diluted in phosphate buffered saline. Cell suspensions were mixed 1:1 v/v with phosphate buffered saline containing dimethyl sulfoxide (final concentration in assay 15%) and either Compound IIa (final concentration 10 μM) or 4-Methylumbelliferyl caprylate (MUCAP, final concentration 0.1 mM). Assays were performed in microplates, total liquid volume was 0.2 mL. Light emission and fluorescence (excitation 360 nm, emission 455 nm) were recorded with a SpectraMax M5 (Molecular Devices, Sunnyvale, Calif., USA) plate reader. Cell concentration of undiluted culture was estimated from optical density (600 nm).
# glucose = test: Detection of glucose in Escherichia coli culture supernatant with compound VIa and glucose oxidase; format: biochemical; conditions: 40 μM compound VIa in HEPES buffer pH 7.0, 1 mg/mL glucose oxidase, 20 min
# Experimental: Cells were separated from culture supernatant by centrifugation (13'000×g, 2 min). […] A second negative control also contained 5 mM glucose, but no glucose oxidase. Culture supernatant with and without glucose (0.1 mL) was mixed in a white microtiter plate with 0.1 mL of HEPES buffer (100 mM, pH 7.0) containing 40 μM of compound VIa, reacting with hydrogen peroxide) and 1 mg/mL commercially available glucose oxidase from Aspergillus niger. […] Presence of glucose lead to continuously increasing luminescence when compound Via and glucose oxidase were also present.
# [12] = test system: Methicillin-resistant Staphylococcus aureus ATCC 33592 (MRSA); test: Luminescence development in cultures with and without oxacillin, Compound IVa; format: cell-based; conditions: oxacillin 20 mg/L, 6 h, 10 μM compound IVa as indicator
# Experimental: (§3) Methicillin-resistant Staphylococcus aureus ATCC 33592 (MRSA), a strain which is resistant to penicillin derivatives such as methicillin and oxacillin, and methicillin-susceptible Staphylococcus aureus ATCC 29213 (MSSA) were cultivated overnight at 37° C. in nutrient broth (5 g/L peptone, 5 g/L sodium chloride, 2 g/L yeast extract, 1 g/L meat extract, pH 7.4) and diluted in sterile saline. MRSA and MSSA strains were inoculated at approx. 10^6 CFU/mL in nutrient broth containing compound IVa at a final concentration of 10 μM. For each strain, one culture was supplemented with oxacillin (20 mg/L final concentration) and one culture was left without antibiotics. Tube cultures were incubated at 37° C. and 150 rpm. A sterile control (nutrient broth with 10 μM of compound IVa) was incubated in parallel. Luminescence of culture samples (0.2 mL in a white microtiter plate) was recorded at regular intervals for 6 h with a SpectraMax M5 plate reader (FIG. 4: Luminescence development in cultures of MRSA and MSSA in the presence and absence of the antibiotic oxacillin). […] Growing and non-growing cultures could be distinguished after 1 h of incubation.
# [13] = test system: methicillin-susceptible Staphylococcus aureus ATCC 29213 (MSSA); test: as above; format: cell-based; conditions: oxacillin 20 mg/L, 6 h, 10 μM compound IVa as indicator
# Experimental: as §3
# [14] = L.m. 2, inoculation density 10^2 CFU/mL
# [15] = L.m. 2, inoculation density 10^3 CFU/mL
# [16] = L.m. 2, inoculation density 10^4 CFU/mL
# [17] = L.m. 2, inoculation density 10^5 CFU/mL
# [18] = S.E. 2, inoculation density 10^1 CFU/mL
# [19] = S.E. 2, inoculation density 10^2 CFU/mL
# [20] = S.E. 2, inoculation density 10^3 CFU/mL
# [21] = S.E. 2, inoculation density 10^4 CFU/mL
# [22] = S.E. 2, inoculation density 10^5 CFU/mL
smiles,measurement,setting,value
COC(=O)/C=C/c1ccc(C2(OC)OOC23C2CC4CC(C2)CC3C4)c(Cl)c1OCc1ccc(OP(=O)(O)O[C@@H]2[C@H](O)[C@H](O)[C@@H](O)[C@H](O)[C@H]2O)cc1 (some centres unmarked) [Compound IIIa],Signal to noise ratio (to sterile),[1],832
same,Mean RLU (n = 3),[1]; 16-20 min after addition,11913 RLU
same,Signal to noise ratio (to sterile),[2]; [14],0.9
same,Mean RLU (n = 3),[2]; [14],12 RLU
same,Signal to noise ratio (to sterile),[2]; [15],2.2
same,Mean RLU (n = 3),[2]; [15],31 RLU
same,Signal to noise ratio (to sterile),[2]; [16],17
same,Mean RLU (n = 3),[2]; [16],242 RLU
same,Signal to noise ratio (to sterile),[2]; [17],716
same,Mean RLU (n = 3),[2]; [17],10258 RLU
same,Signal to noise ratio (to sterile),[3],0.5
same,Mean RLU (n = 3),[3]; 16-20 min after addition,7 RLU
same,Signal to noise ratio (to sterile),[4],2.3
same,Mean RLU (n = 3),[4]; 16-20 min after addition,33 RLU
same,Signal to noise ratio,[5]; PI-PLC added 5 · 10^−1 U/mL,862
same,RLU,"[5]; PI-PLC added 5 · 10^−1 U/mL, 10 μM",60265 RLU
same,Signal to noise ratio,[5]; PI-PLC added 5 · 10^−2 U/mL,512
same,RLU,"[5]; PI-PLC added 5 · 10^−2 U/mL, 10 μM",35822 RLU
same,Signal to noise ratio,[5]; PI-PLC added 5 · 10^−3 U/mL,148
same,RLU,"[5]; PI-PLC added 5 · 10^−3 U/mL, 10 μM",10369 RLU
same,Signal to noise ratio,[5]; PI-PLC added 5 · 10^−4 U/mL,17
same,RLU,"[5]; PI-PLC added 5 · 10^−4 U/mL, 10 μM",1191 RLU
CCCCCCCC(=O)Oc1ccc(COc2c(/C=C/C(=O)O)ccc(C3(OC)OOC34C3CC5CC(C3)CC4C5)c2Cl)cc1 (centres unmarked) [Compound IIa],Signal to noise ratio (to sterile),[6],12
same,Mean RLU (n = 3),[6]; 27-30 min after addition,6480 RLU
same,Signal to noise ratio (to sterile),[7],6
same,Mean RLU (n = 3),[7]; 27-30 min after addition,3504 RLU
same,relation of pig liver esterase concentration and maximal RLU,pig liver esterase,positive linear correlation over two orders of magnitude
same,relation of PI-PLC concentration and maximal RLU,"[5]; 10 μM, 20 min measurement period",positive correlation over two orders of magnitude
same,Signal to noise ratio (to sterile),[8],283
same,Mean RLU (n = 3),[8]; 27-30 min after addition,228202 RLU
same,Signal to noise ratio (to sterile),[9],408
same,Mean RLU (n = 3),[9]; 27-30 min after addition,158262 RLU
same,Signal to noise ratio (to sterile),[10]; [18],2
same,Mean RLU (n = 3),[10]; [18],1041 RLU
same,Signal to noise ratio (to sterile),[10]; [19],9
same,Mean RLU (n = 3),[10]; [19],5100 RLU
same,Signal to noise ratio (to sterile),[10]; [20],72
same,Mean RLU (n = 3),[10]; [20],40236 RLU
same,Signal to noise ratio (to sterile),[10]; [21],275
same,Mean RLU (n = 3),[10]; [21],154011 RLU
same,Signal to noise ratio (to sterile),[10]; [22],693
same,Mean RLU (n = 3),[10]; [22],387911 RLU
same,detectable inoculation density of Salmonella Enteritidis,"[10]; after 6 h of incubation, signal-to-noise ratio of 2 relative to sterile controls",10 CFU/mL
same,"limit of detection for Salmonella enterica, lower than with MUCAP",[11],625 fold
COC1(c2ccc(/C=C/C(=O)O)c(B3OC(C)(C)C(C)(C)O3)c2)OOC12C1CC3CC(C1)CC2C3 (centres unmarked) [VIa],rate of increase of luminescence,glucose,positive correlation with the glucose concentration
Cc1onc(-c2ccccc2)c1C(=O)N[C@@H]1C(=O)N2[C@@H]1SC(C)(C)[C@@H]2C(=O)O [oxacillin],growth by time course of luminescence intensity,[12],multiplied both in the presence and the absence of oxacillin
same,growth by time course of luminescence intensity,[13],showed an increase in luminescence only in the antibiotic-free culture
